Laboratory results reported in ChEMBL document CHEMBL6182928, “Characterization of Hepatotropic Small Molecule Inhibitors of Hypoxia Inducible Factor Prolyl Hydroxylase in the Prevention of Oxygen-Induced Retinopathy” (J Med Chem, 2025).
Each block holds one compound with its values, some of them ahead of it. Activity calls are given as the source filed them. No cut-off for these calls is given here.

Tests used:
[1] = target: Hypoxia-inducible factor 1-alpha (Homo sapiens) (UniProt Q16665); assay: Induction of stabilization of HIF-1alpha in human Hep3B cells by measuring fold change protein level at 500 uM incubated for 3 hrs by Western blot analysis; format: cell-based
[2] = target: Hypoxia-inducible factor 1-alpha (Mus musculus) (UniProt Q61221); assay: Induction of stabilization of HIF-1alpha in mouse NIH-3T3-HIF/Luc cells assessed as activation of HRE by measuring […] at 500 uM incubated for 24 hrs by Bright-glo luciferase assay; format: cell-based
Mus musculus [3] = assay: In vivo inhibition of PHD in Luc-ODD mouse model assessed as stabilization of HIF-1alpha in kidney at 1 mM, ip single dose on postnatal day 8 measured after 3 hrs by Bright-glo luciferase assay; format: functional, organism-based
[4] = target: Hypoxia-inducible factor 1-alpha (Mus musculus) (UniProt Q61221); assay: Induction of stabilization of HIF-1alpha in mouse NIH-3T3-HIF/Luc cells assessed as activation of HRE measured at 24 hrs by Bright-glo luciferase assay; format: cell-based
Mus musculus [5] = assay: (§1) Protection against oxygen-induced hypomyelination in mouse pup assessed as increase in Bnip3 mRNA level in liver administered as ip dose on postnatal day 3, 5, 7 and reared in 80% oxygen exposure on postnatal day 4 to day 8 and measured on postnatal day 11; format: functional, organism-based; conditions: time 9.0 day
Mus musculus [6] = assay: as §1, with “bipolar cell activity by measuring amplitude of ERG b-wave” for “Bnip3 mRNA level in liver”, “11 by electroretinogram analysis” for “11”; format: functional, organism-based; conditions: time 9.0 day
Mus musculus [7] = assay: (§2) Protection against oxygen-induced retinopathy in mouse pup assessed as astrocyte survival administered as ip dose on postnatal day 6, 8, 10 and reared in 75% oxygen exposure on postnatal day 7 to day 12 and measured on postnatal day 17 by isolectin/GFAP based staining analysis; format: functional, organism-based; conditions: time 12.0 day
Mus musculus [8] = assay: Protection against oxygen-induced hypomyelination in mouse pup assessed as increase in vegf mRNA level in liver administered as ip dose on postnatal day 3, 5, 7 and reared in 80% oxygen exposure on postnatal day 4 to day 8 and measured on postnatal day 11; format: functional, organism-based; conditions: time 9.0 day
Mus musculus [9] = assay: (§3) Protection against oxygen-induced retinopathy in wild type C57BL/6J mouse pup assessed as reduction in retinal neovascularization at 1 mmol/Kg, ip administered on postnatal day 6, 8, 10 and reared in 75% oxygen exposure on postnatal day 7 to day 12 and measured on postnatal day 17 by lectin based staining analysis; format: functional, organism-based; conditions: time 12.0 day
[10] = target: Hypoxia-inducible factor 1-alpha (Homo sapiens) (UniProt Q16665); assay: Induction of stabilization of HIF-1alpha in human Hep3B cells at 1 mM measured at 3 to 6 hrs by Immunoblot analysis; format: cell-based; conditions: time 3-6 hrs
Mus musculus [11] = assay: as §3, with “avascular retina” for “retinal neovascularization”; format: functional, organism-based; conditions: time 12.0 day
[12] = target: Hypoxia-inducible factor 1-alpha (Mus musculus) (UniProt Q61221); assay: Induction of stabilization of HIF-1alpha in mouse NIH-3T3-HIF/Luc cells assessed as activation of HRE at 1 mM incubated for 24 hrs by Bright-glo luciferase assay; format: cell-based
Mus musculus [13] = assay: Effect on myelination in oxygen-induced hypomyelination mouse pup model assessed as effect on myelin basic protein level in brain administered as ip dose on postnatal day 3, 5, 7 and reared in 80% oxygen exposure on postnatal day 4 to day 8 and measured on postnatal day 11 by Western blot analysis; format: functional, organism-based; conditions: time 9.0 day
Mus musculus [14] = assay: Protection against oxygen-induced hypomyelination in mouse pup assessed as increase in serpine1 mRNA level in liver administered as ip dose on postnatal day 3, 5, 7 and reared in 80% oxygen exposure on postnatal day 4 to day 8 and measured on postnatal day 11; format: functional, organism-based; conditions: time 9.0 day
[15] = target: Hypoxia-inducible factor 1-alpha (Mus musculus) (UniProt Q61221); assay: Induction of stabilization of HIF-1alpha in mouse NIH-3T3-HIF/Luc cells assessed as activation of HRE at 1 to 4 mM measured at 48 hrs by Bright-glo luciferase assay; format: cell-based; conditions: dose 1-4 mM
Mus musculus [16] = assay: Effect on myelination in oxygen-induced hypomyelination mouse pup model assessed as effect on HIF-1alpha level in brain administered as ip dose on postnatal day 3, 5, 7 and reared in 80% oxygen exposure on postnatal day 4 to day 8 and measured on postnatal day 11 by Western blot analysis; format: functional, organism-based; conditions: time 9.0 day
[17] = target: Hypoxia-inducible factor 1-alpha (Homo sapiens) (UniProt Q16665); assay: Induction of stabilization of HIF-1alpha in human Hep3B cells measured at 3 hrs by Western blot analysis; format: cell-based
Mus musculus [18] = assay: Protection against oxygen-induced hypomyelination in mouse pup assessed as increase in Cox4i2 mRNA level in liver administered as ip dose on postnatal day 3, 5, 7 and reared in 80% oxygen exposure on postnatal day 4 to day 8 and measured on postnatal day 11; format: functional, organism-based; conditions: time 9.0 day
[19] = target: Hypoxia-inducible factor 1-alpha (Homo sapiens) (UniProt Q16665); assay: Induction of stabilization of HIF-1alpha in human Hep3B cells at 1 to 4 mM measured at 24 hrs by Immunoblot analysis; format: cell-based; conditions: dose 1-4 mM
Mus musculus [20] = assay: In vivo inhibition of PHD in Luc-ODD mouse model assessed as stabilization of HIF-1alpha in liver at 1 mM, ip single dose on postnatal day 7 measured after 24 hrs by Bright-glo luciferase assay; format: functional, organism-based
Mus musculus [21] = assay: as §3, with “vaso-obliteration” for “neovascularization”; format: functional, organism-based; conditions: time 12.0 day
Mus musculus [22] = assay: In vivo inhibition of PHD in Luc-ODD mouse model assessed as stabilization of HIF-1alpha in brain at 1 mM, ip single dose on postnatal day 7 measured at 3 to 24 hrs by Bright-glo luciferase assay; format: functional, organism-based; conditions: time 3-24 hrs
Mus musculus [23] = assay: as §3, with “liver-specific HIF knockout (LHKO)” for “wild type C57BL/6J”, “vaso-obliteration” for “neovascularization”; format: functional, organism-based; conditions: time 12.0 day
Mus musculus [24] = assay: as §2, with “glia preservation in total retinal flat mount” for “astrocyte survival”; format: functional, organism-based; conditions: time 12.0 day
[25] = target: Hypoxia-inducible factor 1-alpha (Homo sapiens) (UniProt Q16665); assay: Induction of stabilization of HIF-1alpha in human Hep3B cells incubated for 24 hrs by Immunoblot analysis; format: cell-based
Mus musculus [26] = assay: In vivo inhibition of PHD in Luc-ODD mouse model assessed as stabilization of HIF-1alpha in liver at 1 mM, ip single dose on postnatal day 8 measured after 3 hrs by Bright-glo luciferase assay; format: functional, organism-based

Hypoxia-inducible factor 1-alpha (Mus musculus), sequence (Q61221 whole entry): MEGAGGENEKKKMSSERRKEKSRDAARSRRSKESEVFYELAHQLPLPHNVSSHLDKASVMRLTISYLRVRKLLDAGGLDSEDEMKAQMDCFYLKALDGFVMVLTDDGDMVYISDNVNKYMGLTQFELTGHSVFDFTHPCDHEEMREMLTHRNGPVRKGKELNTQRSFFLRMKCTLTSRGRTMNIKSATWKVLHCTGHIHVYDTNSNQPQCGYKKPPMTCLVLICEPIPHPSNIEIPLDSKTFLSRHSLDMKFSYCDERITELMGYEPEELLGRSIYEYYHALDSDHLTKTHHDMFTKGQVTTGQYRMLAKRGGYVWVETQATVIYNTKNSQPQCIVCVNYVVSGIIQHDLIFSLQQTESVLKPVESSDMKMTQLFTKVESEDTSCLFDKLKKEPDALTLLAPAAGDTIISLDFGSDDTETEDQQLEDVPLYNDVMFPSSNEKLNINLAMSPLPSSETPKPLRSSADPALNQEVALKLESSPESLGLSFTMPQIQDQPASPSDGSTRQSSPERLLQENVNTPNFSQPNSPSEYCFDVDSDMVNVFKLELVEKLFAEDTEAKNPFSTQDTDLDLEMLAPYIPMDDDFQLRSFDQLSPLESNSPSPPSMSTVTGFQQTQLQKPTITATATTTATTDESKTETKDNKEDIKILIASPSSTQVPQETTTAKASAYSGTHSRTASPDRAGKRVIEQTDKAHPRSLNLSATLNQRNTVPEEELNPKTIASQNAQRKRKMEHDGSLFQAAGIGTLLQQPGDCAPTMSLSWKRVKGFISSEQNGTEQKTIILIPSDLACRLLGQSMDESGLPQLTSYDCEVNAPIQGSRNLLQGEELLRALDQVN
Hypoxia-inducible factor 1-alpha (Homo sapiens), sequence (Q16665 whole entry, looked up): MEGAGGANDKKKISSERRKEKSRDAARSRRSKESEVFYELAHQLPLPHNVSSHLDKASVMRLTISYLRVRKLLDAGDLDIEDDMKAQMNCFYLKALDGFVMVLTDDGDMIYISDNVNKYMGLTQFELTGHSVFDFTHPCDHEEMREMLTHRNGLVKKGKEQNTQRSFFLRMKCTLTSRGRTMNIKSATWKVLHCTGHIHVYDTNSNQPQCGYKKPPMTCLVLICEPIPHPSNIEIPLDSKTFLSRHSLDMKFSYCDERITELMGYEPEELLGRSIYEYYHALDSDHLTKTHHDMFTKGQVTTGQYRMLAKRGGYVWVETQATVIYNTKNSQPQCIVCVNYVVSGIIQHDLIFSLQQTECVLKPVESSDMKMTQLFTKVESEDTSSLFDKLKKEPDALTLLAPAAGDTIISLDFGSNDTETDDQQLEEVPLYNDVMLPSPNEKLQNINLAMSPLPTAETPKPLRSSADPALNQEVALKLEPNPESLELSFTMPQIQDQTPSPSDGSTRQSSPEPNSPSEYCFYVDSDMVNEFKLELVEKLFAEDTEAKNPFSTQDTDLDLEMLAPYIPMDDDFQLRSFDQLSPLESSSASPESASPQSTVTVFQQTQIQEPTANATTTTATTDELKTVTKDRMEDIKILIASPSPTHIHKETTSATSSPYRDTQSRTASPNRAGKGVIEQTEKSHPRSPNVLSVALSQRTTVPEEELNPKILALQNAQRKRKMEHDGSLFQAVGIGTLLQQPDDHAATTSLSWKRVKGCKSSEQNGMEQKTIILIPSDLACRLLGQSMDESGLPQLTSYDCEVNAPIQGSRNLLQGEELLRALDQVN

- fold change (FC) [1]: 6
- fold change (FC) [2]: < 2
Compound: COC(=O)C(=O)NCC(=O)OC(C)OC(=O)C(C)(C)C (centres undefined)

- fold change (FC) [1]: 3
- fold change (FC) [2]: < 2
Compound: COC(=O)C(=O)NCC(=O)OCOC(=O)c1ccccc1

- fold change (FC) [1]: 5
- fold change (FC) [2]: < 2
Compound: COC(=O)C(=O)NCC(=O)OC(C)OC(=O)Oc1ccccc1 (centres undefined)

- fold change (FC) [1]: < 1
- fold change (FC) [2]: < 1
Compound: CCOC(=O)OCOC(=O)CNC(=O)C(=O)OC

- fold change (FC) [1]: 1
- fold change (FC) [2]: < 1
Compound: COC(=O)C(=O)NCC(=O)OCOC(=O)C(C)(C)C

- fold change (FC) [1]: 5
- fold change (FC) [2]: < 2
Compound: COC(=O)C(=O)NCC(=O)OC(C)OC(=O)c1ccccc1 (centres undefined)

- fold change (FC) [1]: 1
- fold change (FC) [2]: < 1
Compound: CCC(=O)OCOC(=O)CNC(=O)C(=O)OC

- fold change (FC) [1]: 3
- fold change (FC) [2]: < 2
Compound: CCOC(=O)OC(C)OC(=O)CNC(=O)C(=O)OC (centres undefined)

- fold change (FC) [1]: 6
- fold change (FC) [2]: < 2
Compound: COC(=O)C(=O)NCC(=O)OC(C)OC(C)=O (centres undefined)

- fold change (FC) [1]: < 1
- fold change (FC) [2]: < 1
Compound: COC(=O)OCOC(=O)CNC(=O)C(=O)OC

- fold change (FC) [1]: 7
- fold change (FC) [2]: < 2
Compound: COC(=O)C(=O)NCC(=O)OC(C)OC(=O)C(C)C (centres undefined)

- fold change (FC) [1]: < 1
- fold change (FC) [2]: < 1
Compound: COC(=O)C(=O)NCC(=O)OCOC(=O)OC(C)C

- fold change (FC) [1]: < 1
- fold change (FC) [2]: < 1
Compound: COC(=O)C(=O)NCC(=O)OCOC(=O)Oc1ccccc1

- ED50 [4]: 1140 µM
- Activity [10]: Active
- Activity [12]: Active
- Activity [15]: inactive
- ED50 [17]: 2130 µM
- Activity [19]: inactive
- Activity [25]: Active
Compound: COC(=O)C(=O)NCC(=O)OC(C)C
- Activity (Mus musculus [3]): Active
- Activity (Mus musculus [5]): Active; Compound Showed Higher Mrna Expression In Liver Compared To Brain
- Activity (Mus musculus [6]): Active
- Activity (Mus musculus [7]): Active
- Activity (Mus musculus [8]): Active; Compound Showed Higher Mrna Expression In Liver Compared To Brain
- Activity (Mus musculus [9]): Active
- Activity (Mus musculus [11]): Active
- Activity (Mus musculus [13]): inactive
- Activity (Mus musculus [14]): Active; Compound Showed Higher Mrna Expression In Liver Compared To Brain
- Activity (Mus musculus [16]): inactive
- Activity (Mus musculus [18]): Active; Compound Showed Higher Mrna Expression In Liver Compared To Brain
- Activity (Mus musculus [20]): Active
- Activity (Mus musculus [21]): Active
- Activity (Mus musculus [22]): inactive
- Activity (Mus musculus [23]): Active; Less Protected Compared To Compound Treated Wild-Type Mouse
- Activity (Mus musculus [24]): Active
- Activity (Mus musculus [26]): Active

- fold change (FC) [1]: 2
- fold change (FC) [2]: < 2
Compound: COC(=O)C(=O)NCC(=O)OC(C)OC(=O)OC(C)(C)C (centres undefined)

- fold change (FC) [1]: 2
- fold change (FC) [2]: < 1
Compound: COC(=O)C(=O)NCC(=O)OCOC(C)=O

- fold change (FC) [1]: < 1
- fold change (FC) [2]: < 1
Compound: COC(=O)C(=O)NCC(=O)OCOC(=O)OC(C)(C)C

- fold change (FC) [1]: 3
- fold change (FC) [2]: < 2
Compound: COC(=O)C(=O)NCC(=O)OC(C)OC(=O)OC(C)C (centres undefined)

- fold change (FC) [1]: < 1
- fold change (FC) [2]: < 1
Compound: COC(=O)C(=O)NCC(=O)OCOC(=O)C(C)C

- fold change (FC) [1]: 3
- fold change (FC) [2]: < 2
Compound: COC(=O)OC(C)OC(=O)CNC(=O)C(=O)OC (centres undefined)

- fold change (FC) [1]: 4
- fold change (FC) [2]: < 2
Compound: CCC(=O)OC(C)OC(=O)CNC(=O)C(=O)OC (centres undefined)
